Measured values as given in patent publication US9561231B2 (AbbVie Inc., priority 2012, dated 2017).
pEC50, pKi: −log10 of the molar value. Read-outs that look alike come from different tables or passages of the source.

Experiments:
[1] = test system: breast cancer cell line MX-1; assay: MX-1 cell line proliferation assay (3-day); format: cell-based; details: Homo sapiens, MX1, MX-1 cells, Cell Titer Glo, read-out: Cellular proliferation: EC50
Summary of the method: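 MX-1 cells in RPMI/10% FBS, plated 5000/well overnight, then exposed to compound at final 3 to 0.0001 μM (3-fold series) for 3 days at 37° C. Cell Titer Glo luminescence normalized to DMSO-treated cells; EC50 from sigmoidal curve fit.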

[2] = target: T1, second (BD2: amino acids E352-E168) bromodomain of BRD4 (Homo sapiens, UniProt O60885); assay: TR-FRET bromodomain binding assay, BRD4 BD2; details: Ki calculated from IC50, probe Kd and probe concentration, read-out: TR-FRET Binding Ki: BRD4 (BDII_E352-M457)
T1 construct: protocol
Summary of the method: (§1)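 TR-FRET probe competition, His-tagged bromodomain, Alexa647-labeled BET-inhibitor tracer. Ki from IC50 via probe Kd.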

[3] = target: T2, first (BD1: amino acids K57-E168) bromodomain of BRD4 (Homo sapiens, UniProt O60885); assay: TR-FRET bromodomain binding assay, BRD4 BD1; details: Ki calculated from IC50, probe Kd and probe concentration, read-out: TR-FRET Binding Ki: BRD4 (BDI_K57-E168)
T2 construct: His-tagged first (BD1: amino acids K57-E168)
Summary of the method: as §1

[4] = TR-FRET assay protocol (A-G, compound concentration range)
[5] = TR-FRET assay protocol (D, E or G) per compound

Row | Structure (SMILES) | pEC50 ([1]; 72 h incubation) | pKi [2, 4] | pKi [3, 4] | pEC50 ([1]; 72 hours with compound) | pKi [2, 5] | pKi [3, 5]
1 | CCS(=O)(=O)Nc1ccc(Oc2ccc(F)cc2F)c(-c2cn(C)c(=O)cc2NCC2CC2)c1 [Example 353, N-[3-{4-[(cyclopropylmethyl)amino]-1-methyl-6-oxo-1,6-dihydropyridin-3-yl}-4-(2,4-difluorophenoxy)phenyl]ethanesulfonamide] | 7.24 | 8.64 | 8.36 |  |  | 
2 | CCCc1cc(=O)n(C)cc1-c1cc(NS(=O)(=O)CC)ccc1Oc1ccc(F)cc1F [Example 359, N-[4-(2,4-difluorophenoxy)-3-(1-methyl-6-oxo-4-propyl-1,6-dihydropyridin-3-yl)phenyl]ethanesulfonamide] | 6.95 | 8.29 | 7.90 |  |  | 
3 | CCS(=O)(=O)Nc1ccc(Oc2ccc(F)cc2F)c(-c2cn(C)c(=O)cc2NC2CC2)c1 [Example 362, N-{3-[4-(cyclopropylamino)-1-methyl-6-oxo-1,6-dihydropyridin-3-yl]-4-(2,4-difluorophenoxy)phenyl}ethanesulfonamide] | 7.47 | 8.56 | 8.24 |  |  | 
4 | CC(C)S(=O)(=O)c1ccc(Oc2ccc(F)cc2F)c(-c2ccc(=O)n(C)c2)c1 [Example 364, 5-[2-(2,4-difluorophenoxy)-5-(propan-2-ylsulfonyl)phenyl]-1-methylpyridin-2(1H)-one] | 6.06 | 6.82 | 7.07 |  |  | 
5 | CCOc1cc(=O)n(C)cc1-c1cc(CS(C)(=O)=O)ccc1Oc1ccc(F)cc1F [Example 370, 5-{2-(2,4-difluorophenoxy)-5-[(methylsulfonyl)methyl]phenyl}-4-ethoxy-1-methylpyridin-2(1H)-one] | 6.87 | 7.40 | 7.28 |  |  | 
6 | CCS(=O)(=O)Nc1ccc(Oc2ccc(F)cc2F)c(-c2cn(C)c(=O)cc2OCCC(C)(C)O)c1 [Example 372, N-{4-(2,4-difluorophenoxy)-3-[4-(3-hydroxy-3-methylbutoxy)-1-methyl-6-oxo-1,6-dihydropyridin-3-yl]phenyl}ethanesulfonamide] | 6.69 | 7.84 | 7.47 |  |  | 
7 | CCOc1cc(=O)n(C)cc1-c1cc(S(=O)(=O)CC)ccc1NC1CC1 [Example 373, 5-[2-(cyclopropylamino)-5-(ethylsulfonyl)phenyl]-4-ethoxy-1-methylpyridin-2(1H)-one] |  |  |  | 6.07 | 6.78 | 6.93
8 | CCS(=O)(=O)Nc1ccc(Oc2ccc(F)cc2F)c(-c2cn(C)c(=O)cc2OCC(C)(C)O)c1 [Example 376, N-{4-(2,4-difluorophenoxy)-3-[4-(2-hydroxy-2-methylpropoxy)-1-methyl-6-oxo-1,6-dihydropyridin-3-yl]phenyl}ethanesulfonamide] |  |  |  | 6.15 | 7.77 | 6.91
9 | CCOc1cc(=O)n(C)cc1-c1cc(S(=O)(=O)CC)ccc1Oc1ccc(OC(F)(F)F)cc1 [Example 377, 4-ethoxy-5-{5-(ethylsulfonyl)-2-[4-(trifluoromethoxy)phenoxy]phenyl}-1-methylpyridin-2(1H)-one] |  |  |  | 7.03 | 8.19 | 7.27
10 | CCOc1cc(=O)n(C)cc1-c1cc(S(=O)(=O)CC)ccc1Oc1ccc(C#N)cc1 [Example 378, 4-[2-(4-ethoxy-1-methyl-6-oxo-1,6-dihydropyridin-3-yl)-4-(ethylsulfonyl)phenoxy]benzonitrile] |  |  |  | 6.99 | 7.50 | 6.95
11 | CCOc1cc(=O)n(C)cc1-c1cc(CS(=O)(=O)CC)ccc1Oc1ccc(F)cc1F [Example 379, 5-{2-(2,4-difluorophenoxy)-5-[(ethylsulfonyl)methyl]phenyl}-4-ethoxy-1-methylpyridin-2(1H)-one] |  |  |  | 6.90 | 7.79 | 7.21
12 | CCOc1cc(=O)n(C)cc1-c1cc(C(C)(C)S(=O)(=O)CC)ccc1Oc1ccc(F)cc1F [Example 380, 5-{2-(2,4-difluorophenoxy)-5-[2-(ethylsulfonyl)propan-2-yl]phenyl}-4-ethoxy-1-methylpyridin-2(1H)-one] |  |  |  | 7.42 | 8.41 | 7.84
13 | CCOc1cc(=O)n(C)cc1-c1cc(NS(=O)(=O)CC)ccc1OCC1CC1 [Example 381, N-[4-(cyclopropylmethoxy)-3-(4-ethoxy-1-methyl-6-oxo-1,6-dihydropyridin-3-yl)phenyl]ethanesulfonamide] |  |  |  | 6.94 | 7.25 | 7.48
14 | CCOc1cc(=O)n(C)cc1-c1cc(NS(=O)(=O)CC)ccc1OCCC1CC1 [Example 383, N-[4-(2-cyclopropylethoxy)-3-(4-ethoxy-1-methyl-6-oxo-1,6-dihydropyridin-3-yl)phenyl]ethanesulfonamide] |  |  |  | 7.08 | 7.08 | 7.36
15 | CCOc1cc(=O)n(C)cc1-c1cc(NS(=O)(=O)CC)ccc1OC1CCC1 [Example 384, N-[4-(cyclobutyloxy)-3-(4-ethoxy-1-methyl-6-oxo-1,6-dihydropyridin-3-yl)phenyl]ethanesulfonamide] |  |  |  | 6.63 | 6.84 | 7.19
16 | CCOc1cc(=O)n(C)cc1-c1cc(NS(=O)(=O)CC)ccc1OC1CCC(F)(F)CC1 [Example 385, N-{4-[(4,4-difluorocyclohexyl)oxy]-3-(4-ethoxy-1-methyl-6-oxo-1,6-dihydropyridin-3-yl)phenyl}ethanesulfonamide] |  |  |  | 6.60 | 6.85 | 7.26
17 | CCOc1cc(=O)n(C)cc1-c1cc(NS(=O)(=O)CC)ccc1Oc1ccc(C(F)(F)F)cc1 [Example 386, N-{3-(4-ethoxy-1-methyl-6-oxo-1,6-dihydropyridin-3-yl)-4-[4-(trifluoromethyl)phenoxy]phenyl}ethanesulfonamide] |  |  |  | 7.27 | 7.99 | 7.09
18 | CCS(=O)(=O)Nc1ccc(Oc2ccc(F)cc2F)c(-c2cn(C)c(=O)cc2-c2cnn(Cc3ccccc3)c2)c1 [Example 390, N-{3-[4-(1-benzyl-1H-pyrazol-4-yl)-1-methyl-6-oxo-1,6-dihydropyridin-3-yl]-4-(2,4-difluorophenoxy)phenyl}ethanesulfonamide] |  |  |  | 7.10 | 7.87 | 7.44
19 | CCS(=O)(=O)Nc1ccc(Oc2ccc(F)cc2F)c(-c2cn(C)c(=O)cc2-c2cnn(CC(C)C)c2)c1 [Example 391, N-[4-(2,4-difluorophenoxy)-3-{1-methyl-4-[1-(2-methylpropyl)-1H-pyrazol-4-yl]-6-oxo-1,6-dihydropyridin-3-yl]phenyl}ethanesulfonamide] |  |  |  | 7.24 | 8.34 | 8.04
20 | CCS(=O)(=O)Nc1ccc(Oc2ccc(F)cc2F)c(-c2cn(C)c(=O)cc2-c2ccco2)c1 [Example 392, N-{4-(2,4-difluorophenoxy)-3-[4-(furan-2-yl)-1-methyl-6-oxo-1,6-dihydropyridin-3-yl]phenyl}ethanesulfonamide] |  |  |  | 7.16 | 8.37 | 7.66
21 | CCS(=O)(=O)Nc1ccc(Oc2ccc(F)cc2F)c(-c2cn(C)c(=O)cc2-c2ccoc2)c1 [Example 393, N-{4-(2,4-difluorophenoxy)-3-[4-(furan-3-yl)-1-methyl-6-oxo-1,6-dihydropyridin-3-yl]phenyl}ethanesulfonamide] |  |  |  | 7.15 | 8.60 | 7.92
22 | CCOc1cc(=O)n(C)cc1-c1cc(NS(=O)(=O)CC)ccc1O[C@H]1CC[C@H](NC(=O)OC(C)(C)C)CC1 [Example 395, tert-butyl(trans-4-{2-(4-ethoxy-1-methyl-6-oxo-1,6-dihydropyridin-3-yl)-4-[(ethylsulfonyl)amino]phenoxy}cyclohexyl)carbamate] |  |  |  | 6.32 | 6.66 | 6.98
23 | CCOc1cc(=O)n(C)cc1-c1cc(NS(=O)(=O)CC)ccc1Oc1ccc(F)cc1 [Example 396, N-[3-(4-ethoxy-1-methyl-6-oxo-1,6-dihydropyridin-3-yl)-4-(4-fluorophenoxy)phenyl]ethanesulfonamide] |  |  |  | 7.81 | 8.50 | 8.02
24 | CCOc1cc(=O)n(C)cc1-c1cc(S(=O)(=O)N2CCc3ccccc32)ccc1OCC1CC1 [Example 397, 5-[2-(cyclopropylmethoxy)-5-(2,3-dihydro-1H-indol-1-ylsulfonyl)phenyl]-4-ethoxy-1-methylpyridin-2(1H)-one] |  |  |  | 7.06 | 8.05 | 7.12
25 | CCS(=O)(=O)Nc1ccc(Oc2ccc(F)cc2F)c(-c2cn(C)c(=O)cc2OCC2CCNCC2)c1 [Example 399, N-{4-(2,4-difluorophenoxy)-3-[1-methyl-6-oxo-4-(piperidin-4-ylmethoxy)-1,6-dihydropyridin-3-yl]phenyl}ethanesulfonamide] |  |  |  | < 5.52 | 7.70 | 7.51
26 | CCOc1cc(=O)n(C)cc1-c1cc(NS(=O)(=O)CC)ccc1Oc1ccc(F)c(F)c1 [Example 401, N-[4-(3,4-difluorophenoxy)-3-(4-ethoxy-1-methyl-6-oxo-1,6-dihydropyridin-3-yl)phenyl]ethanesulfonamide] |  |  |  | 7.60 | 8.30 | 7.70
